One assay deals with Myzus persicae. Nature of the assay: Pesticidal effect against Myzus persicae (cabbage leaf disk). Format: in vivo. The following applies: Myzus persicae first instar larvae, spread, 3 days, 25° C. From the text:
A leaf disk having a diameter of 2.8 cmφ was cut out from a cabbage grown in a pot and was placed in a 5.0 cm-Schale. Four adult aphids of Myzus persicae were released in the Schale. One day after the release of the adult aphids, the adult aphids were removed. The number of larvae at the first instar born in the leaf disk was adjusted to 10, and a test solution, which had been adjusted to a predetermined concentration by the addition of a 50% aqueous acetone solution (0.05% Tween 20 added) was spread over the cabbage leaf disk. The cabbage leaf disk was then air dried. Thereafter, the Schale was lidded and was allowed to stand in a temperature-controlled room (light period 16 hr-dark period 8 hr) (25° C.).
(§1) The death rate of larvae was calculated by the following equation. Death rate (%)={number of dead larvae/(number of survived larvae+number of dead larvae)}×100 The concentrations which gave the death rate of 90% or more are shown in Table 2.

The next assay has as its system Aphis gossypii. Nature of the assay: Pesticidal effect against Aphis gossypii (cucumber leaf disk). Format: in vivo. As to conditions: Aphis gossypii first instar larvae, spread, 3 days, 25° C.
Description: A leaf disk having a diameter of 2.0 cmφ was cut out from a cucumber grown in a pot and was placed in a 5.0 cm-Schale. A test solution, which had been adjusted to a predetermined concentration by the addition of a 50% aqueous acetone solution (0.05% Tween 20 added) was spread over the […] leaf disk. After air dried, ten (10) of larvae of Aphis gossypii at the first instar were released in the Schale. Thereafter, the Schale was lidded and was allowed to stand in a temperature-controlled room (light period 16 hr-dark period 8 hr) (25° C.).
as §1

A further assay concerns Pseudococcus comstocki. Nature of the assay: Pesticidal effect against Pseudococcus comstocki (Phaseolus vulgaris leaf disk). Type of assay: in vivo. As to conditions: Pseudococcus comstocki first instar larvae, spread, 3 days, 25° C. As to the method:
A leaf disk having a diameter of 2.8 cmφ was cut out from a leaf of Phaseolus vulgaris and was placed on an agar in a plastic cup, into which ten (10) of larvae of Pseudococcus comstocki at the first instar were released. A test solution, which had been adjusted to a predetermined concentration by the addition of a 50% aqueous acetone solution (0.05% Tween 20 added) was spread. After air dried, it was allowed to stand in a temperature-controlled room (light period 16 hr-dark period 8 hr) (25° C.).
as §1

For assay [1], the system named is larvae of Helicoverpa zea. As to conditions: in vivo; cited from earlier work.
In assay [2] the test system is Plutella xylostella L larvae. As to conditions: in vivo; cited from earlier work.
The test system of a further assay is Tenebrio molitor L. As to conditions: in vivo; cited from earlier work.

For the compound `CC1(COC(=O)C2CC2)C2CC(=O)[C@@]3(C)Oc4cc(-c5cccnc5)oc(=O)c4[C@H](O)C3[C@@]2(C)CC[C@@H]1OC(=O)C1CC1` (stereo partly drawn) [Compound 1], the “Concentration (ppm) for the death rate of 90% or more, Test Example 1” value with Myzus persicae was found to be 0.010 ppm. The “Concentration (ppm) for the death rate of 90% or more, Test Example 2” value in the assay on Aphis gossypii stood at 0.078 ppm. In addition, in the assay on Pseudococcus comstocki, the “Concentration (ppm) for the death rate of 90% or more, Test Example 3” value stood at 0.156 ppm.
`CC1(COC(=O)C2CC2)C2CC[C@@]3(C)Oc4cc(-c5cccnc5)oc(=O)c4[C@H](O)C3[C@@]2(C)CC[C@@H]1OC(=O)C1CC1` (stereo partly drawn) [Compound 2]: the “Concentration (ppm) for the death rate of 90% or more, Test Example 1” value in the assay with Myzus persicae is 0.039 ppm. Moreover, the “Concentration (ppm) for the death rate of 90% or more, Test Example 2” value in the assay on Aphis gossypii is on record as 0.078 ppm. The “Concentration (ppm) for the death rate of 90% or more, Test Example 3” value in the assay with Pseudococcus comstocki came to 0.625 ppm.
Pyripyropene A: the “insecticidal activity against larvae of Helicoverpa zea” value in assay [1] is on record as “insecticidal activity”. The “insecticidal activity against Plutella xylostella L larvae” value in assay [2] is “insecticidal activity”. The “insecticidal activity against Tenebrio molitor L” value in the assay with Tenebrio molitor L was “insecticidal activity”.
